Several values for one entry are separate records, joined by “and”; a condition that tells them apart may be missing. Identical values can stand only once.
Legend:
[1] = target: E. coli. RNA polymerase holoenzyme supplemented with additional recombinant sigma 70 (Escherichia coli, UniProt P00579+P0A7Z4+P0A8T7+P0A8V2); assay: Prokaryotic (E. coli) RNA Polymerase Assay (Promoter Specific); format: biochemical; conditions: positive control at 20 ug/ml, column 12 rows A and B, plates #1 and #2
Source text: Prokaryotic (E. coli) RNA Polymerase Assay (Promoter Specific)
In this example, the targeted polymerase is the E. coli. RNA polymerase holoenzyme (α2 ββ'[…] ) supplemented with additional recombinant sigma 70 to increase the percentage of promoter specific transcription over non-specific elongation. GTP is omitted from the assay mixture. The substrate is a pBR-based plasmid with sigma 70, -10+-30 recognition sequences and a 260 nt G-free cassette
1. Make 1.45× assay buffer from 5× stock (1× final with extract and enzyme added). Add fresh components (polyethyleneglycol (PEG), dithiothreitol (DTT), and DNA) to final 1x solution; 50 mM Tris-Ac at pH 7.8, 100 μm ATP, 100 μM UTP, 1 μM CTP, 20 μg Bovine Serum Albumin/80 μl, PEG 3%, plasmid DNA template (described above), 0.3-0.5 μg/80 μl (from dose response), 2 mM DTT. Filter using 0.45 μm filter.
2. Make 1× storage buffer (50 mM Tris-Ac, 100 mM KAc, 100 mM MgCl2, 0.25 mg/ml BSA, 5 mM DTT). Add enzyme and [[…]]-CTP to a concentration such that there are about 80-100K cpm CTP in 15 μl, and enough enzyme (from dose response) to get 3000 cpm incorporated.
(§1) 3. Add 60 μl of assay buffer to filterplate.
(§2) 4. Add 8 μl of extract or compounds to filterplate.
5. Add 15 μl of ^33 P CTP+enzyme to filterplate. Shake 10 min.
(§3) 6. Incubate 45 min at 34° C.
7. Add 100 μl of DEAE Sephacell (Pharmacia) beads (20% slurry in 60% methanol, 20 mM EDTA, 0.02% NP-40). […]

[2] = test system: Eukaryotic (Yeast) RNA Polymerase II; assay: Eukaryotic (Yeast) RNA Polymerase II Assay (Promoter Nonspecific); format: biochemical, Candida; conditions: positive control at 20 ug/ml, column 12 rows A and B, plates #1 and #2
Method: Eukaryotic (Yeast) RNA Polymerase II Assay (Promoter Nonspecific)
1. Make 1.45× assay buffer from 5× stock (1× final with extract and enzyme added). Add fresh components (PEG, DTT, and MnCl2) to final 1× solution: 50 mM Tris-Acetate at pH 7.8, 50 mM KAc, 0.4 mM ATP, 0.2 mM GTP and UTP, 1 μM CTP, 20 μg BSA/80 μl, PEG 3%, single stranded DNA, 0.2 μg/80 μl, 2 mM DTT, and 2 mM MnCl2. Filtrate using 0.45 μm filter.
2. Make 1× storage buffer (50 mM Tris-Ac, 100 mM KAc, 0.25 mg/ml BSA, 5 mM DTT). Add enzyme and [α-^33 P]-CTP to a concentration such that there are about 80-100 CK cpm of hot CTP in 15 μl, and enough enzyme (from dose response) to get 3000 cpm incorporated.
as §1, §2
5. Add 15 μl hot CTP+enzyme to filterplate. Shake 10 min.
as §3
7. Add 100 μl of DEAE beads (20% slurry in 60% methanol, 20 mM EDTA, 0.02% NP-40). Incubate 1 hr.
8. Wash 5 times (300 μl each) with 0.5M dibasic NaPi, 0.5% NP-40, 10% ethanol.
9. Seal bottom, add 160 μl cocktail, seal top, and count.
Column 1, rows A-D of both plate #1 and #2 are background counts. Column 1, rows E-H of both plate #1 and #2 are counts obtained without the additon of label. Column 12, rows A and B of both plate #1 and #2 are positive controls using the eukaryotic RNA polymerase II inhibitor α-amanitinat 20 ug/ml. […]

Chain of E. coli. RNA polymerase holoenzyme supplemented with additional recombinant sigma 70 (P0A7Z4 whole entry): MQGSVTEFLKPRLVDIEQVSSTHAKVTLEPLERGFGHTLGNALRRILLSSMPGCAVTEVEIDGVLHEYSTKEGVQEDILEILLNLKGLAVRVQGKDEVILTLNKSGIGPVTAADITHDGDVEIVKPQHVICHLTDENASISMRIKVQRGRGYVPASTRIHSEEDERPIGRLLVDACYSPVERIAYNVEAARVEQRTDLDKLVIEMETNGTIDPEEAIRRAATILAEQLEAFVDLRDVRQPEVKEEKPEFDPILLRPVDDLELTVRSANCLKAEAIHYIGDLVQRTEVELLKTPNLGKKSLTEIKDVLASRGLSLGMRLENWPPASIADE
Chain of E. coli. RNA polymerase holoenzyme supplemented with additional recombinant sigma 70 (P0A8V2 whole entry): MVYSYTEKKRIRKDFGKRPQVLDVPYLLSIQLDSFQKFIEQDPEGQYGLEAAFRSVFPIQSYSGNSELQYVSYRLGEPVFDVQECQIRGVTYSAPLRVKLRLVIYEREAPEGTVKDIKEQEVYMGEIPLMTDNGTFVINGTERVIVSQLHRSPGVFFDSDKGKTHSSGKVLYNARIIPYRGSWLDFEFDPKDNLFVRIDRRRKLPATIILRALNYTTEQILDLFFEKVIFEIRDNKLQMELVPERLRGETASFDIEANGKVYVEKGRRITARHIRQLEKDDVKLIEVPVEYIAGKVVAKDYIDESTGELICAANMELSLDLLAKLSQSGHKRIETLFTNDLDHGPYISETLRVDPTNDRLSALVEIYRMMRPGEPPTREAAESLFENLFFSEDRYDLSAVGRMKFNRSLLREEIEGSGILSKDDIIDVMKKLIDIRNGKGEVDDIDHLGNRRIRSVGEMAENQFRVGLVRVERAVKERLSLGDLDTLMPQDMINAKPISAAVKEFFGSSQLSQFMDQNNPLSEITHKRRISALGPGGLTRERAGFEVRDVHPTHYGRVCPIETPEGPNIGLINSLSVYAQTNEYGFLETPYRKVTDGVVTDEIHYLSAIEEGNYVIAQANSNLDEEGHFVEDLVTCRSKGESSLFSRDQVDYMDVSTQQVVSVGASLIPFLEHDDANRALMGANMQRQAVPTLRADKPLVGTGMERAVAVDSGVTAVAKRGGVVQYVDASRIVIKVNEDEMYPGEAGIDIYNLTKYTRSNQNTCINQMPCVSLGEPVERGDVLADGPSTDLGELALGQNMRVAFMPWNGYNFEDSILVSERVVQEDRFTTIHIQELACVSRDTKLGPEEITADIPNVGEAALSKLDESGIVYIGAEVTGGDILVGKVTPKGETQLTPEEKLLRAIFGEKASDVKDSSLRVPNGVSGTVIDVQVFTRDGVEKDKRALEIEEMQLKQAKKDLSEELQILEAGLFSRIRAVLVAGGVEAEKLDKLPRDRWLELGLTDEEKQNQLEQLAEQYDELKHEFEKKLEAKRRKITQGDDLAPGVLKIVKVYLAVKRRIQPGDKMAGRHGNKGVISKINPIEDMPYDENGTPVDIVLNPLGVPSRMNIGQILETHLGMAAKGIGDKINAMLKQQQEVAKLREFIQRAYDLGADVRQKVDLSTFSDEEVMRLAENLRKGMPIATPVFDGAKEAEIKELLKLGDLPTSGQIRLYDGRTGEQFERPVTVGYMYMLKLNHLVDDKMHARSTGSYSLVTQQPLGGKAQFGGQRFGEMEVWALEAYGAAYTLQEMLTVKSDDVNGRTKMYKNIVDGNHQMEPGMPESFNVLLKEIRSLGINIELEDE
Chain of E. coli. RNA polymerase holoenzyme supplemented with additional recombinant sigma 70 (P0A8T7 whole entry): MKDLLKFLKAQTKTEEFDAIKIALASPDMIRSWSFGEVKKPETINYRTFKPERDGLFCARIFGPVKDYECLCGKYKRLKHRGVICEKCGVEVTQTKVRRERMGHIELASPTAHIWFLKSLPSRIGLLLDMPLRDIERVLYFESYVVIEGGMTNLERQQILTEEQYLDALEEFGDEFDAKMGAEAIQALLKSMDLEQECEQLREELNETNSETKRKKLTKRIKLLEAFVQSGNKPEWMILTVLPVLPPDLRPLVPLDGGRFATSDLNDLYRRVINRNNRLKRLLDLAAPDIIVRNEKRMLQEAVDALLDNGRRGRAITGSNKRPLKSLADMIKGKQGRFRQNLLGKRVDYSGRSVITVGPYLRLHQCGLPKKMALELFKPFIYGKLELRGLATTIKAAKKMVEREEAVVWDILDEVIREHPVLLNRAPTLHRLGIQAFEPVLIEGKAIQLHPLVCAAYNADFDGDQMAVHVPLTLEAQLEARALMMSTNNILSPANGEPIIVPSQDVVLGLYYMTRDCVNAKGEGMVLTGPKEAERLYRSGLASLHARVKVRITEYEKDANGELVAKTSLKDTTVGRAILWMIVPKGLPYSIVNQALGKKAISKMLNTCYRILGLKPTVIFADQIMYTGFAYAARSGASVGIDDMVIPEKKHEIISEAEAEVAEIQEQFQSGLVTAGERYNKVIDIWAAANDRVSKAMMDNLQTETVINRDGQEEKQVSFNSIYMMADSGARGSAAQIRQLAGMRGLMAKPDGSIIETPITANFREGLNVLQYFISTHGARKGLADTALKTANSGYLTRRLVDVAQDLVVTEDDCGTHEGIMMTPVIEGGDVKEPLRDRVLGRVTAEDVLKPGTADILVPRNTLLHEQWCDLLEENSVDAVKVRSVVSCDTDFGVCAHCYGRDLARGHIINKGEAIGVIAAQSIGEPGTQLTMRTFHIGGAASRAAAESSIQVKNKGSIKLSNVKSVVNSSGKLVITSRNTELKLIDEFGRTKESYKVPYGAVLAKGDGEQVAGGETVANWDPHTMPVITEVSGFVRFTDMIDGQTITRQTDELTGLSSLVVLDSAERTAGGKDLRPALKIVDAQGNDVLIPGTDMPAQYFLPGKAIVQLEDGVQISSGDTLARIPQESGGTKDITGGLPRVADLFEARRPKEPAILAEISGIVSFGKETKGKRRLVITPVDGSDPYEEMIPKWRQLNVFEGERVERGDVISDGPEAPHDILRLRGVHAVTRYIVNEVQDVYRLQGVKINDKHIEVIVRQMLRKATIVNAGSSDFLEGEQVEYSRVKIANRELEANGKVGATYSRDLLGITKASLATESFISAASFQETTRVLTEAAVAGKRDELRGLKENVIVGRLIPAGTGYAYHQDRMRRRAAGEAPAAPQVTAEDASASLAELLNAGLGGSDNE
Chain of E. coli. RNA polymerase holoenzyme supplemented with additional recombinant sigma 70 (P00579 whole entry): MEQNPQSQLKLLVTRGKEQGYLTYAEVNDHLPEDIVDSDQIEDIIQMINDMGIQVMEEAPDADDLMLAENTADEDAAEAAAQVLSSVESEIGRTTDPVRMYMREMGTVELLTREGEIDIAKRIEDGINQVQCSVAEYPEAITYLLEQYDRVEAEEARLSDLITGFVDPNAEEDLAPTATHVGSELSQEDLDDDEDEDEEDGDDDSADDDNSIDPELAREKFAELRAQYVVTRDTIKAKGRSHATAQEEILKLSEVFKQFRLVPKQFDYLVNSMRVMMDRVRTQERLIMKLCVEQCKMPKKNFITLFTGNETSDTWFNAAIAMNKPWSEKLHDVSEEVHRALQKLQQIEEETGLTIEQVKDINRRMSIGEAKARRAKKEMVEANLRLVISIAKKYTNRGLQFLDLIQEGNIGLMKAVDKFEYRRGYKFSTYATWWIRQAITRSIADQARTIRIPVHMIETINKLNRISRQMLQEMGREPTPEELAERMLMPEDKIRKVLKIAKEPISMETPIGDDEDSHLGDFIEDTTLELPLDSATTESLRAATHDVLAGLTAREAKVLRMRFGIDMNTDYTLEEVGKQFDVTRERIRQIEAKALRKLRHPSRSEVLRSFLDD

Row | Structure (SMILES) | CPM A (label incorporated into transcript) [1] | CPM A (label incorporated into transcript) [2]
1 | CO[C@H]1/C=C/O[C@@]2(C)Oc3c(C)c(O)c4c(O)c(c(/C=N/N5CCN(C)CC5)c(O)c4c3C2=O)NC(=O)/C(C)=C\C=C\[C@H](C)[C@H](O)[C@@H](C)[C@@H](O)[C@@H](C)[C@H](OC(C)=O)[C@@H]1C [rifampin] | 717.00 CPM and 578.50 CPM and 452.50 CPM and 605.50 CPM | 
2 | CCC(C)C1NC(=O)CNC(=O)C2Cc3c([nH]c4cc(O)ccc34)[S+]([O-])CC(NC(=O)CNC1=O)C(=O)NC(CC(N)=O)C(=O)N1CC(O)CC1C(=O)NC(C(C)C(O)CO)C(=O)N2 (stereo not drawn) [α-amanitin] |  | 6477.00 CPM and 6882.00 CPM and 6999.00 CPM and 7028.50 CPM
